The values that follow are results of earlier work, collected in US20100166856A1, “PHARMACEUTICAL COMPOSITION IN THE FORM OF COATED MICROSPHERES FOR THE MODIFIED RELEASE OF A MUSCLE RELAXANT AND AN NSAID” (LABORATORIOS SENOSIAIN S.A. DE C.V., priority 2006, published 2010).

The conditions of data set [1]: after administration.
For data set [2] the following is noted: 22.5 mg of meloxicam.
Data set [3] relates to metabolism of tizanidine. To be noted: combination of tizanidine with rofecoxib.

For the compound `Cc1cnc(NC(=O)C2=C(O)c3ccccc3S(=O)(=O)N2C)s1` [meloxicam], the “time at which maximum plasma concentration is reached” value in data set [1] was 4 to 5 h. The “time of second concentration peak” value in data set [1] (indicates gastrointestinal re-circulation) is 12 to 14 h. In addition, the “effect of higher dose” value in data set [2] is given as “only an increase in gastrointestinal adverse effect was observed”.

`CS(=O)(=O)c1ccc(C2=C(c3ccccc3)C(=O)OC2)cc1` [rofecoxib]: the “pharmacokinetic interaction with tizanidine” value in data set [3] is recorded as “inhibits the metabolism of tizanidine”.

For `Clc1ccc2nsnc2c1NC1=NCCN1` [tizanidine], the half-life time entry (after oral administration) is reported as “approximately 2.5 hours”. Where the note is “in vivo”, the excretion in feces entry is on record as “about 20%” and the excretion in urine was 60%.
